From patent US20080188481A1 (priority 2002, published 2008)

test system: HIV-1 single-round infectious reporter virus; assay: Single-round infectious HIV-1 luciferase reporter virus infection of HeLa CD4 cells (antiviral EC50); type: cell-based; conditions: Human immunodeficiency virus 1, HeLa, 72 h, read-out: EC50 Group from Table 1
Method: • Virus production—Human embryonic Kidney cell line, 293T, was propagated in Dulbecco's Modified Eagle Medium (Invitrogen, Carlsbad, Calif.) containing 10% fetal Bovine serum (FBS, Sigma, St. Louis, Mo.). • Virus infection—Human epithelial cell line, HeLa, expressing the HIV-1 receptor CD4 was propagated in Dulbecco's Modified Eagle Medium (Invitrogen, Carlsbad, Calif.) containing 10% fetal Bovine serum (FBS, Sigma, St. Louis, Mo.) and supplemented with 0.2 mg/mL Geneticin (Invitrogen, Carlsbad, Calif.). Virus-Single-round infectious reporter virus was produced by co-transfecting human embryonic Kidney 293 cells with an HIV-1 envelope DNA expression vector and a proviral cDNA containing an envelope deletion mutation and the luciferase reporter gene inserted in place of HIV-1 nef sequences (Chen et al, Ref. 41). Transfections were performed using lipofectAMINE PLUS reagent as described by the manufacturer (Invitrogen, Carlsbad, Calif.).
• 1. HeLa CD4 cells were plated in 96 well plates at a cell density of 1×10^4 cells per well in 100 μl Dulbecco's Modified Eagle Medium containing 10% fetal Bovine serum and incubated overnight. • 2. Compound was added in a 2 μl dimethylsulfoxide solution, so that the final assay concentration would be ≦10 μM. • 3. 100 μl of single-round infectious reporter virus in Dulbecco's Modified Eagle Medium was then added to the plated cells and compound at an approximate multiplicity of infection (MOI) of 0.01, resulting in a final volume of 200 μl per well. • 4. Virally-infected cells were incubated at 37 degrees Celsius, in a CO2 incubator, and harvested 72 h after infection. • 5. Viral infection was monitored by measuring luciferase expression from viral DNA in the infected cells using a luciferase reporter gene assay kit, as described by the manufacturer (Roche Molecular Biochemicals, Indianapolis, Ind.). Infected cell supernatants were removed and 50 μl of lysis buffer was added per well. After 15 minutes, 50 μl of freshly-reconstituted luciferase assay reagent was added per well. Luciferase activity was then quantified by measuring luminescence using a Wallac microbeta scintillation counter. • 6. The percent inhibition for each compound was calculated by quantifying the level of luciferase expression in cells infected in the presence of each compound as a percentage of that observed for cells infected in the absence of compound and subtracting such a determined value from 100. • 7. An EC50 provides a method for comparing the antiviral potency of the compounds of this invention. The effective concentration for fifty percent inhibition (EC50) was calculated with the Microsoft Excel Xlfit curve fitting software. For each compound, curves were generated from percent inhibition calculated at 10 different concentrations by using a four paramenter logistic model (model 205). Table 1 is the key for the data in Table 2.

Row | Compound | EC50 [nM]
1 | COc1ncc(OC)c2c(C(=O)C(=O)N3CCC(=C(C#N)c4c(C)sc(C)c4C)CC3)c[nH]c12 [Example 125, 1-[4-(1-Cyano-1-(2,3,5-trimethylthien-4-yl)-methylene)-piperidin-1-yl]-2-(4,7-dimethoxy-6-azaindol-3-yl)-ethane-1,2-dione] | > 5000
2 | CCc1nnc(C(=C2CCN(C(=O)C(=O)c3c[nH]c4c(-n5ccnn5)ncc(OC)c34)CC2)c2ccccc2)o1 [Example 74, 1-[4-(1-Phenyl-1-(5-ethyl-1,3,4-oxadiazol-2-yl)-methylene)-piperidin-1-yl]-2-[4-methoxy-7-(1,2,3-triazol-1-yl)-6-azaindol-3-yl]-ethane-1,2-dione] | < 1000
3 | COc1ncc(OC)c2c(C(=O)C(=O)N3CCC(=C(c4ccccc4)c4nnc(C)o4)CC3)c[nH]c12 [Example 52, 1-[4-(1-Phenyl-1-(5-methyl-1,3,4-oxadiazol-2-yl)-methylene)-piperidin-1-yl]-2-(4,7-dimethoxy-6-azaindol-3-yl)-ethane-1,2-dione] | < 1000
4 | O=C(C(=O)N1CCC(=C(c2ccccc2)c2ccccc2)CC1)c1c[nH]c2ccccc12 [Example 4] | 1000 to 5000
5 | COc1ncc(OC)c2c(C(=O)C(=O)N3CCC(=C(c4ccccc4)c4nnco4)CC3)c[nH]c12 [Example 51, 1-[4-(1-Phenyl-1-(1,3,4-oxadiazol-2-yl)-methylene)-piperidin-1-yl]-2-(4,7-dimethoxy-6-azaindol-3-yl)-ethane-1,2-dione] | < 1000
6 | COc1cnc(-n2ccnn2)c2[nH]cc(C(=O)C(=O)N3CCC(=C(c4ccccc4)c4nnc(O)o4)CC3)c12 [Example 77, 1-[4-(1-Phenyl-1-(5-hydroxy-1,3,4-oxadiazol-2-yl)-methylene)-piperidin-1-yl]-2-[4-methoxy-7-(1,2,3-triazol-1-yl)-6-azaindol-3-yl]-ethane-1,2-dione] | < 1000
7 | COc1ncc(OC)c2c(C(=O)C(=O)N3CCC(=C(c4ccccc4)c4cccc([N+](=O)[O-])c4)CC3)c[nH]c12 [Example 66] | < 1000
8 | COc1ncc(OC)c2c(C(=O)C(=O)N3CCC(=C(C#N)c4csc5ccccc45)CC3)c[nH]c12 [Example 128, 1-[4-(1-Cyano-1-benzothien-3-yl-methylene)-piperidin-1-yl]-2-(4,7-dimethoxy-6-azaindol-3-yl)-ethane-1,2-dione] | < 1000
9 | COc1cnc(-n2ccnn2)c2[nH]cc(C(=O)C(=O)N3CCC(=C(c4ccccc4)c4nnc(C(C)C)o4)CC3)c12 [Example 75, 1-[4-(1-Phenyl-1-(5-isopropyl-1,3,4-oxadiazol-2-yl)-methylene)-piperidin-1-yl]-2-[4-methoxy-7-(1,2,3-triazol-1-yl)-6-azaindol-3-yl]-ethane-1,2-dione] | < 1000
10 | N#CC(=C1CCN(C(=O)C(=O)c2c[nH]c3c(-c4cnccn4)ccnc23)CC1)c1ccccc1 [Example 102, {1-[2-Oxo-2-(7-pyrazin-2-yl-1H-pyrrolo[3,2-b]pyridin-3-yl)-acetyl]-piperidin-4-ylidene}-phenyl-acetonitrile] | < 1000
11 | COc1ncc(OC)c2c(C(=O)C(=O)N3CCC(=C(C#N)c4coc5ccccc45)CC3)c[nH]c12 [Example 127, 1-[4-(1-Cyano-1-benzofuran-3-yl-methylene)-piperidin-1-yl]-2-(4,7-dimethoxy-6-azaindol-3-yl)-ethane-1,2-dione] | < 1000
12 | COc1cnc(-n2cnc(C)n2)c2[nH]cc(C(=O)C(=O)N3CCC(=C(c4ccccc4)c4nnc(C5CC5)o4)CC3)c12 [Example 82, 1-[4-(1-Phenyl-1-(5-cyclopropyl-1,3,4-oxadiazol-2-yl)-methylene)-piperidin-1-yl]-2-[4-methoxy-7-(3-methyl-1,2,4-triazol-1-yl)-6-azaindol-3-yl]-ethane-1,2-dione] | < 1000
13 | COc1cnc(-n2cnc(C)n2)c2[nH]cc(C(=O)C(=O)N3CCC(=C(c4ccccc4)c4nnco4)CC3)c12 [Example 131, 1-[4-(1-Phenyl-1-(1,3,4-oxadiazol-2-yl)-methylene)-piperidin-1-yl]-2-[4-methoxy-7-(3-methyl-1,2,4-triazol-1-yl)-6-azaindol-3-y]-ethane-1,2-dione] | < 1000
14 | COc1cnc(Cl)c2[nH]cc(C(=O)C(=O)N3CCC(=C(C(N)=O)c4ccccc4)CC3)c12 [Example 48] | 1000 to 5000
15 | COc1ncc(OC)c2c(C(=O)C(=O)N3CCC(=C(c4ccccc4)c4nccs4)CC3)c[nH]c12 [Example 49a, 1-[4-(1-Phenyl-1-(thiazol-2-yl)-methylene)-piperidin-1-yl]-2-(4,7-dimethoxy-6-azaindol-3-yl)-ethane-1,2-dione] | < 1000
16 | COc1ncc(OC)c2c(C(=O)C(=O)N3CCC(=C(c4ccccc4)c4ccco4)CC3)c[nH]c12 [Example 54] | < 1000

Row | Compound | EC50 [nM]
17 | COc1ccnc2[nH]cc(C(=O)C(=O)N3CCC(=C(F)c4ccccc4)CC3)c12 [Example 10] | < 1000
18 | COc1ncc(OC)c2c(C(=O)C(=O)N3CCC(=C(C#CC(=O)O)c4ccccc4)CC3)c[nH]c12 [Example 119, 1-[4-(1-Phenyl-1-(2-carboxyethyn-1-yl)-methylene)-piperidin-1-yl]-2-(4,7-dimethoxy-6-azaindol-3-yl)-ethane-1,2-dione] | < 1000
19 | COc1ncc(OC)c2c(C(=O)C(=O)N3CCC(=C(c4ccccc4)c4cc(C)cs4)CC3)c[nH]c12 [Example 55] | < 1000
20 | COc1ncc(OC)c2c(C(=O)C(=O)N3CCC(=C(c4ccccc4)c4ccccc4)CC3)c[nH]c12 [Example 57] | < 1000
21 | CCOC(=O)c1cncc(C(=C2CCN(C(=O)C(=O)c3c[nH]c4c(-n5cnc(C)n5)ncc(OC)c34)CC2)c2ccccc2)c1 [Example 121] | < 1000
22 | COCC#CC(=C1CCN(C(=O)C(=O)c2c[nH]c3c(OC)ncc(OC)c23)CC1)c1ccccc1 [Example 117, 1-[4-(1-Phenyl-1-(2-methoxymethylethyn-1-yl)-methylene)-piperidin-1-yl]-2-(4,7-dimethoxy-6-azaindol-3-yl)-ethane-1,2-dione] | < 1000
23 | COc1cnc(-n2ccc(C)n2)c2[nH]cc(C(=O)C(=O)N3CCC(=C(c4ccccc4)c4ccc(F)cc4)CC3)c12 [Example 97] | < 1000
24 | COc1ncc(OC)c2c(C(=O)C(=O)N3CCC(=C(c4ccccc4)S(C)(=O)=O)CC3)c[nH]c12 [Example 12] | 1000 to 5000
25 | COc1ncc(OC)c2c(C(=O)C(=O)N3CCC(=C(c4ccccc4)c4ccc(SC)cc4)CC3)c[nH]c12 [Example 63] | < 1000
26 | COc1cnc(-n2ccnn2)c2[nH]cc(C(=O)C(=O)N3CCC(=C(c4ccccc4)c4cnn(C)c4)CC3)c12 [Example 142, 1-[4-(1-Phenyl-1-(1-methylpyrazol-4-yl)-methylene)-piperidin-1-yl]-2-(4-methoxy-7-(1,2,3-triazol-1-yl)-6-azaindol-3-yl)-ethane-1,2-dione] | < 1000
27 | COc1ncc(OC)c2c(C(=O)C(=O)N3CCC(=C(Cl)c4ccccc4)CC3)c[nH]c12 [Example 5] | < 1000
28 | COc1cnc(-n2cnc(C)n2)c2[nH]cc(C(=O)C(=O)N3CCC(=C(c4ccccc4)c4cncc(CO)c4)CC3)c12 [Example 120, 1-[4-(1-Phenyl-1-(5-hydroxymethylpyridin-3-yl)-methylene)-piperidin-1-yl]-2-[4-methoxy-7-(3-methyl-1,2,4-triazol-1-yl)-6-azaindol-3-yl]-ethane-1,2-dione] | < 1000
29 | COc1cnc(-n2cnc(C)n2)c2[nH]cc(C(=O)C(=O)N3CCC(=C(c4ccccc4)c4cnn(C)c4)CC3)c12 [Example 141, 1-[4-(1-Phenyl-1-(1-methylpyrazol-4-yl)-methylene)-piperidin-1-yl]-2-(4-methoxy-7-(3-methyl-1,2,4-triazol-1-yl)-6-azaindol-3-yl)-ethane-1,2-dione] | < 1000
30 | COc1ncc(OC)c2c(C(=O)C(=O)N3CCC(=C(c4ccccc4)c4cccc(F)c4)CC3)c[nH]c12 [Example 67] | < 1000
31 | COc1cnc(-n2ccnn2)c2[nH]cc(C(=O)C(=O)N3CCC(=C(c4ccccc4)c4nnc(C)o4)CC3)c12 [Example 73, 1-[4-(1-Phenyl-1-(5-methyl-1,3,4-oxadiazol-2-yl)-methylene)-piperidin-1-yl]-2-[4-methoxy-7-(1,2,3-triazol-1-yl)-6-azaindol-3-yl]-ethane-1,2-dione] | < 1000
32 | COc1ncc(OC)c2c(C(=O)C(=O)N3CCC(=Cc4ccccc4)CC3)c[nH]c12 [Example 13] | > 5000
